Measured values reported in patent US10786477B2, “Formulations having anti-inflammatory activity and antimicrobial activity against gram-positive bacteria” (NATUREZA, INC., priority 2014, dated 2020).
Converted amounts (≈) assume the structure as drawn. Like-named read-outs stand apart in the source and are kept apart here.

Experiments:
S. epidemidis = assay: MIC, CLSI broth microdilution M07; assay type: cell-based, Staphylococcus epidermidis
S. pyogenes = assay: MIC, CLSI broth microdilution M07; assay type: cell-based, Streptococcus pyogenes
S. mutans = assay: MIC, CLSI broth microdilution M07; assay type: cell-based, Streptococcus mutans
bacteria = conditions: background, cited from earlier work; for antibacterial / antimicrobial activity: compared with lauric acid
C. difficile = assay: MIC, CLSI broth microdilution M07; assay type: cell-based, Clostridium difficile
Candida = assay: MIC of fungi, CLSI broth microdilution M27; assay type: cell-based
Mycobacterium = assay: MIC, CLSI broth microdilution; assay type: cell-based; conditions: Table 1; active component in compositions of first example; range 0.08-5 wt.%
C. albicans = assay: MIC of fungi, CLSI broth microdilution M27; assay type: cell-based; conditions: Candida albicans; Table 2; active component range 0.08-8 mg/ml
Bifidobacterium = assay: MIC, CLSI broth microdilution M07; assay type: cell-based
M. bovis = assay: microbe, parasite or virus in culture; assay type: cell-based
[1] = system: strains of Staphylococcus; assay: Bacterial growth in presence of first-example suspensions; assay type: cell-based, Staphylococcus spp.; conditions: first example: optically clear suspensions of 1 wt.% active component combined with 2% bile
From the text: In these examples, the optically clear suspensions were combined with 2% bile when evaluating activity against various bacteria.

Lactobacillus spp. = assay: MIC, CLSI broth microdilution M07; assay type: cell-based
S. aureus = assay: MIC, CLSI broth microdilution M07; assay type: cell-based, Staphylococcus aureus
E coli = assay: MIC, CLSI broth microdilution M07; assay type: cell-based, Escherichia coli
B. bifidum = assay: MIC, CLSI broth microdilution M07; assay type: cell-based; conditions: Bifidobacterium bifidum; Table 2; active component range 0.08-8 mg/ml; >8 = no inhibitory effect
S. mitis = assay: MIC, CLSI broth microdilution M07; assay type: cell-based, Streptococcus mitis
L. acidophilus = assay: MIC, CLSI broth microdilution M07; assay type: cell-based; conditions: Lactobacillus acidophilus; Table 2; active component range 0.08-8 mg/ml; >8 = no inhibitory effect
[2] = Table 1, active component in compositions of first example, range 0.08-5 wt.%
[3] = Table 3, active component range 0.0009-8 μg/ml, values match chitosan-coated liposomes of third example
[4] = Streptococcus mutans, Table 2, active component range 0.08-8 mg/ml, read-out: MIC
[5] = Clostridioides difficile, Table 2, active component range 0.08-8 mg/ml, read-out: MIC
[6] = Table 1, active component in compositions of first example, range 0.08-5 wt.%, >>5% = no inhibitory effect
[7] = Mycobacterium tuberculosis variant bovis
[8] = Staphylococcus aureus, Table 2, active component range 0.08-8 mg/ml, read-out: MIC
[9] = Escherichia coli, Table 2, active component range 0.08-8 mg/ml, >8 = no inhibitory effect, read-out: MIC

CCCCCCCCCCCC(=O)OCC [EL, ethyl laurate]
MIC (S. epidemidis; [2]): 0.5%
MIC (S. epidemidis; [3]): 0.0018%
MIC (S. pyogenes; [2]): 0.5%
MIC (S. pyogenes; [3]): 0.0018%
MIC (S. mutans; [4]): 800 µg/mL (≈ 3.5 mM)
MIC (S. mutans; [2]): 0.5%
MIC (S. mutans; [3]): 0.0018%
activity relative to lauric acid (times less active) (bacteria): forty times less active
antibacterial / antimicrobial activity (bacteria): little or no antimicrobial activity
MIC (C. difficile; [5]): 800 µg/mL (≈ 3.5 mM)
MIC (C. difficile; [2]): 0.5%
MIC (C. difficile; [3]): 0.0018%
MIC (Candida; [2]): 0.5%
MIC (Candida; [3]): 0.0018%
MIC (Mycobacterium): 1%
MIC (C. albicans): < 80 µg/mL
MIC (Bifidobacterium; [6]): >>5%^
MIC (Bifidobacterium; [3]): >>5%
MIC (M. bovis; [7]): 2000 µg/mL (≈ 8.76 mM)
MIC (M. bovis; [3]): 0.0018%
effect on bacterial growth [1]: completely bacteriostatic
MIC (Lactobacillus spp.; [6]): >>5%^
MIC (Lactobacillus spp.; [3]): >>5%
MIC (S. aureus; [8]): 800 µg/mL (≈ 3.5 mM)
MIC (S. aureus; [2]): 0.5%
MIC (S. aureus; [3]): 0.0018%
MIC (E coli; [9]): > 8000 µg/mL
MIC (E coli; [6]): >>5%^
MIC (E coli; [3]): >>5%
MIC (B. bifidum): > 8000 µg/mL
MIC (S. mitis; [2]): 0.5%
MIC (S. mitis; [3]): 0.0018%
MIC (L. acidophilus): > 8000 µg/mL

CCCCCCCCCCCC(=O)OC [ML, methyl laurate]
MIC (S. epidemidis; [2]): 0.5%
MIC (S. epidemidis; [3]): 0.0018%
MIC (S. pyogenes; [2]): 0.5%
MIC (S. pyogenes; [3]): 0.0018%
MIC (S. mutans; [4]): 800 µg/mL (≈ 3.73 mM)
MIC (S. mutans; [2]): 0.5%
MIC (S. mutans; [3]): 0.0018%
antibacterial / antimicrobial activity (bacteria): some modest antibacterial activity in vitro
MIC (C. difficile; [5]): 800 µg/mL (≈ 3.73 mM)
MIC (C. difficile; [2]): 1%
MIC (C. difficile; [3]): 0.0018%
MIC (Candida; [2]): 0.5%
MIC (Candida; [3]): 0.0018%
MIC (Mycobacterium): 0.5%
MIC (C. albicans): < 80 µg/mL
MIC (Bifidobacterium; [6]): >>5%^
MIC (Bifidobacterium; [3]): >>5%
MIC (M. bovis; [7]): 2000 µg/mL (≈ 9.33 mM)
MIC (M. bovis; [3]): 0.0018%
effect on bacterial growth [1]: significantly retarded bacterial growth
MIC (Lactobacillus spp.; [6]): >>5%^
MIC (Lactobacillus spp.; [3]): >>5%
MIC (S. aureus; [8]): 800 µg/mL (≈ 3.73 mM)
MIC (S. aureus; [2]): 0.5%
MIC (S. aureus; [3]): 0.0018%
MIC (E coli; [9]): > 8000 µg/mL
MIC (E coli; [6]): >>5%^
MIC (E coli; [3]): >>5%
MIC (B. bifidum): > 8000 µg/mL
MIC (S. mitis; [2]): 0.5%
MIC (S. mitis; [3]): 0.0018%
MIC (L. acidophilus): > 8000 µg/mL
